Values quoted from earlier work, collected in patent publication US20170105937A1, “OLAPARIB CO-PRECIPITATE AND PREPARATION METHOD THEREOF” (CADILA HEALTHCARE LIMITED, priority 2015, published 2017).

Settings: poor solubility and moderate permeability

- Biopharmaceutics Classification System (BCS) class: class 4
SMILES: O=C(c1cc(Cc2n[nH]c(=O)c3ccccc23)ccc1F)N1CCN(C(=O)C2CC2)CC1 [Olaparib, 4-[3-(4-cyclopropanecarbonyl-piperazine-1-carbonyl)-4-fluoro-benzyl]-2H-phthalazin-1-one]
